The target of one data set is T1, hsst3 (Homo sapiens, UniProt P32745).
T1 construct: purchased Millipore (Schwalbach, Germany), ChemiSCREEN membranes; host or cells: CHO cells stably transfected
Briefly: Competition binding, hsst3 membrane preparations (Millipore), [125I]SST-28 radioligand. The following applies: CHO cell membranes (Millipore), [Leu8,D-Trp22,[125I]Tyr25]-somatostatin 28 radioligand; IC50 ± SD; read-out: IC50 hsst 3. As for the experimental part:
(§1) Cell membrane preparations of cells expressing the human sst1–5 were obtained from Millipore (Schwalbach, Germany) and PerkinElmer (Rodgau, Germany). Competition binding studies were performed in close analogy to the manufacturer’s protocol. […] To each well, 10 μL of (Leu^8,D-Trp^22,[^125I]Tyr^25)-somatostatin-28 in binding buffer (approx. 100,000 cpm) were added. Then, 5 μg of cell membrane in 80 μL of binding buffer were added per well and incubated for 60 min at RT. The final radioligand concentration in the incubation mixture was 0.42 nM. Membranes were then aspired onto a glass fiber filtermat (Printed Filtermat B, Wallach, Turku, Finland), which had been preconditioned with 0.33% polyethylenimine for 30 min and then washed five times with 300 μL (per well) of wash buffer (50 mM HEPES, 500 mM NaCl, 0.1% BSA, buffered to pH 7.4 using 1 N NaOH), using a Mach II M Harvester 96 (Tomtec CE, Etten-Leur, The Netherlands). Membranes were washed ten times with 150 μL (per well) of wash buffer. The filtermat was then cut into squares containing the membrane from the respective wells, and membrane bound activity was counted in a γ-counter. IC50 values were calculated from bound activity [cpm] using PRISM 6 software (Graph Pad Software, San Diego, CA, USA).
(§2) Data were determined using membrane preparations of CHO cells stably transfected with the respective sst subtype.

Another data set addresses T2, hsst1 (Homo sapiens, UniProt P30872).
T2 construct: purchased Millipore (Schwalbach, Germany), ChemiSCREEN membranes; host or cells: CHO cells stably transfected
Briefly: Competition binding, hsst1 membrane preparations (Millipore), [125I]SST-28 radioligand. Conditions: CHO cell membranes (Millipore), [Leu8,D-Trp22,[125I]Tyr25]-somatostatin 28 radioligand; IC50 ± SD; read-out: IC50 hsst 1. As for the experimental part:
as §1, §2

The target of data set [1] is T3, hsst5 (Homo sapiens, UniProt P35346). Briefly: Competition binding, hsst5 membrane preparations (Millipore), [125I]SST-28 radioligand. Also noted: purchased Millipore (Schwalbach, Germany), ChemiSCREEN membranes; host or cells: CHO cells stably transfected. The following applies: CHO cell membranes (Millipore), [Leu8,D-Trp22,[125I]Tyr25]-somatostatin 28 radioligand; IC50 ± SD; read-out: IC50 hsst 5. As to the method: as §1, §2
T3 sequence (P35346 whole entry): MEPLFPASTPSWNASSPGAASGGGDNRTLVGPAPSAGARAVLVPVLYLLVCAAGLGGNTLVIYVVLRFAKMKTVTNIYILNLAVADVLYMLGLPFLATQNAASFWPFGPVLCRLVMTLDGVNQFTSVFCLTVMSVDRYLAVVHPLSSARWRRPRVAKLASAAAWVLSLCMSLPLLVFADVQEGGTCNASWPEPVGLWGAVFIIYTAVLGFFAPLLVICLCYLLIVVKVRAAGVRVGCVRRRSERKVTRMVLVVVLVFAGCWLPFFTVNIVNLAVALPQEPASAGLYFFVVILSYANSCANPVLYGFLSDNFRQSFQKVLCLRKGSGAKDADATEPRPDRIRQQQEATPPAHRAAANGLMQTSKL

Data set [2] can be described thus: Biodistribution in AR42J tumor-bearing nude mice. The following applies: mouse, 60 min p.i.
Description: (§3) To establish tumor growth, AR42J cells were detached from the surface of the culture flasks using 1 mM EDTA in PBS, centrifuged, and resuspended in serum-free culture medium. Concentration of the cell suspension was 2.5 to 5 × 10^6 cells/100 μL. Nude mice (CD-1 nu/nu, female, 6 to 8 weeks, from Charles River WIGA GmbH, Sulzfeld, Germany) were injected with 100 μL of the cell suspension subcutaneously into the flank. […] For competition studies, 20 μg TOC (0.8 mg/kg) were coinjected with the radioligands. The animals (groups of 4 to 5) were sacrificed 1 h post injection and the organs of interest were dissected. The radioactivity was measured in weighted tissue samples using a γ-counter. Data are given in %iD/g and are means ± SD.
The conditions of data set [3]: pH 7.4, log P O/PBS.
Description: Lipophilicities of [^68Ga]DOTATATE/HA-DOTATATE and [^177Lu]DOTATATE/HA-DOTATATE were determined via a modified shake flask method as described previously [13].
For another data set, the system named is sst2. Also noted: method as in PMID 10774879. The following applies: read-out: IC50 (sst2), receptor autoradiography; cited from earlier work.
Data set [4] addresses T3, hsst5. Also noted: method as in PMID 10774879. The following applies: read-out: hsst5 affinity, autoradiography assay; cited from earlier work.
For data set [5], the system named is AR42J tumor-bearing nude mice. Description: Biodistribution in AR42J tumor-bearing nude mice. The following applies: 60 min p.i.
Description: as §3

Where two headings read alike, the source gives them in different places.

As usually defined, the tissue uptake is the percentage of the injected dose found per gram of tissue. By logP is commonly meant a log measure of how a compound divides between an organic and an aqueous phase. Higher therefore signals higher lipophilicity.

T1 sequence (P32745 whole entry): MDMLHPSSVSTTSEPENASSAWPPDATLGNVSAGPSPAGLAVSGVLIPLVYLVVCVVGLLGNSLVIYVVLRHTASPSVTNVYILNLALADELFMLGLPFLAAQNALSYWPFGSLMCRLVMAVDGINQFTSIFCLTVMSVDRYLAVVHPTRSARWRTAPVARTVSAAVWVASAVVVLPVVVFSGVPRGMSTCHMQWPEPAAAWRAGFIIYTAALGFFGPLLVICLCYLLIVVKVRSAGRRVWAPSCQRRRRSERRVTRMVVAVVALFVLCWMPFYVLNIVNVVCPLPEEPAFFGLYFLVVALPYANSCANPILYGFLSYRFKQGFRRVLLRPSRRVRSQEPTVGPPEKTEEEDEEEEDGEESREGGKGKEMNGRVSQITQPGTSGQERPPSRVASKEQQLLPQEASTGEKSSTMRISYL
T2 sequence (P30872 whole entry): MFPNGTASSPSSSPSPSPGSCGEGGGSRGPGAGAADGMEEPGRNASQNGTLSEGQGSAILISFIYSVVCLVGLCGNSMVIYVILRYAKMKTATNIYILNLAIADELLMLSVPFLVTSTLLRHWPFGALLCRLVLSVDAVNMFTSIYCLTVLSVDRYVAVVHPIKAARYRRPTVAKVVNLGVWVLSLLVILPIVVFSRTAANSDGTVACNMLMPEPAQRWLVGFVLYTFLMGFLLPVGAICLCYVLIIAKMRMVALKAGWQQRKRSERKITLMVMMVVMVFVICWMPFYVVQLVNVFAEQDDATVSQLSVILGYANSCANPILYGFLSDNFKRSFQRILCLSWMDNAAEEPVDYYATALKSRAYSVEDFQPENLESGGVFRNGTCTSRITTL

As to `C[C@@H](O)[C@H](NC(=O)[C@@H]1CSSC[C@H](NC(=O)[C@@H](Cc2ccccc2)NC(=O)CN2CCN(CC(=O)O)CCN(CC(=O)O)CCN(CC(=O)O)CC2)C(=O)N[C@@H](Cc2ccc(O)c(I)c2)C(=O)N[C@H](Cc2c[nH]c3ccccc23)C(=O)N[C@@H](CCCCN)C(=O)N[C@@H]([C@@H](C)O)C(=O)N1)C(=O)O` [^natGa-HA-DOTATATE, metal not drawn], the results for the IC50 at hsst3, on hsst1 and on hsst5 [1] were greater than 1000 nM, greater than 1000 nM and 102 ± 65 nM, respectively.
On to `C[C@@H](O)[C@H](NC(=O)[C@@H]1CSSC[C@H](NC(=O)[C@@H](Cc2ccccc2)NC(=O)CN2CCN(CC(=O)O)CCN(CC(=O)O)CCN(CC(=O)O)CC2)C(=O)N[C@@H](Cc2ccc(O)c(I)c2)C(=O)N[C@H](Cc2c[nH]c3ccccc23)C(=O)N[C@@H](CCCCN)C(=O)N[C@@H]([C@@H](C)O)C(=O)N1)C(=O)O` [[^68Ga]HA-DOTATATE, [^68Ga]DOTA-3-iodo-Tyr^3-octreotate, metal not drawn], for which the tissue uptake at 1 h in data set [2] (AR42J tumor, intravenous, Biodistribution AR42J tumor, Competition, coinjection of 20 μg/mouse unlabeled TOC, n = 3) came out at 5.6 ± 0.7 %ID/g; in data set [2] (AR42J tumor, iv, 25 pmol/mouse, Biodistribution AR42J tumor, Control, tracer only, n = 5), 33.6 ± 10.9 %ID/g; in data set [2] (adrenals, intravenous, Biodistribution Adrenals, Competition, coinjection of 20 μg/mouse unlabeled TOC, n = 3) it was 1 ± 0.3 %ID/g; in data set [2] (adrenals, iv, 25 pmol/mouse, Biodistribution Adrenals, Control, tracer only, n = 5), 10.8 ± 3.2 %ID/g; in data set [2] (blood, intravenous, Biodistribution Blood, Competition, coinjection of 20 μg/mouse unlabeled TOC, n = 3), 2.5 ± 0.6 %ID/g; in data set [2] (blood, iv, 25 pmol/mouse, Biodistribution Blood, Control, tracer only, n = 5) it was 0.7 ± 0.3 %ID/g. Further, the tissue uptake at 1 h in data set [2] (heart, intravenous, Biodistribution Heart, Competition, coinjection of 20 μg/mouse unlabeled TOC, n = 3) amounted to 1 ± 0.2 %ID/g; in data set [2] (heart, iv, 25 pmol/mouse, Biodistribution Heart, Control, tracer only, n = 5), 0.5 ± 0.2 %ID/g; in data set [2] (intestine, intravenous, Biodistribution Intestine, Competition, coinjection of 20 μg/mouse unlabeled TOC, n = 3), 0.8 ± 0.04 %ID/g; in data set [2] (intestine, iv, 25 pmol/mouse, Biodistribution Intestine, Control, tracer only, n = 5) it was 4 ± 0.7 %ID/g; in data set [2] (kidney, intravenous, Biodistribution Kidney, Competition, coinjection of 20 μg/mouse unlabeled TOC, n = 3), 17.1 ± 8.7 %ID/g; in data set [2] (kidney, iv, 25 pmol/mouse, Biodistribution Kidney, Control, tracer only, n = 5), 5.3 ± 1 %ID/g. For the same molecule, the tissue uptake at 1 h in data set [2] (liver, intravenous, Biodistribution Liver, Competition, coinjection of 20 μg/mouse unlabeled TOC, n = 3) stood at 1 ± 0.3 %ID/g; in data set [2] (liver, iv, 25 pmol/mouse, Biodistribution Liver, Control, tracer only, n = 5) it was 1 ± 0.2 %ID/g; in data set [2] (lung, intravenous, Biodistribution Lung, Competition, coinjection of 20 μg/mouse unlabeled TOC, n = 3) it was 2.5 ± 0.4 %ID/g; in data set [2] (lung, iv, 25 pmol/mouse, Biodistribution Lung, Control, tracer only, n = 5), 13.2 ± 1 %ID/g; in data set [2] (muscle, intravenous, Biodistribution Muscle, Competition, coinjection of 20 μg/mouse unlabeled TOC, n = 3) it was 0.6 ± 0.4 %ID/g; in data set [2] (muscle, iv, 25 pmol/mouse, Biodistribution Muscle, Control, tracer only, n = 5) it was 0.2 ± 0.1 %ID/g. The tissue uptake at 1 h is 1.5 ± 0.5 %ID/g in data set [2] (pancreas, intravenous, Biodistribution Pancreas, Competition, coinjection of 20 μg/mouse unlabeled TOC, n = 3); 36.6 ± 4.3 %ID/g in data set [2] (pancreas, iv, 25 pmol/mouse, Biodistribution Pancreas, Control, tracer only, n = 5); 0.7 ± 0.2 %ID/g in data set [2] (spleen, intravenous, Biodistribution Spleen, Competition, coinjection of 20 μg/mouse unlabeled TOC, n = 3); 1.9 ± 0.8 %ID/g in data set [2] (spleen, iv, 25 pmol/mouse, Biodistribution Spleen, Control, tracer only, n = 5); 1.9 ± 0.8 %ID/g in data set [2] (stomach, intravenous, Biodistribution Stomach, Competition, coinjection of 20 μg/mouse unlabeled TOC, n = 3); 21.7 ± 4.5 %ID/g in data set [2] (stomach, iv, 25 pmol/mouse, Biodistribution Stomach, Control, tracer only, n = 5).
Take `C[C@@H](O)[C@H](NC(=O)[C@@H]1CSSC[C@H](NC(=O)[C@@H](Cc2ccccc2)NC(=O)CN2CCN(CC(=O)O)CCN(CC(=O)O)CCN(CC(=O)O)CC2)C(=O)N[C@@H](Cc2ccc(O)cc2)C(=O)N[C@H](Cc2c[nH]c3ccccc23)C(=O)N[C@@H](CCCCN)C(=O)N[C@@H]([C@@H](C)O)C(=O)N1)C(=O)O` [^natGa-DOTATATE, metal not drawn, reference compound]: the IC50 was greater than 1000 nM at hsst3; greater than 1000 nM at hsst1; […] with sst2; greater than 1000 nM at hsst5 [1]; 200 to 500 nM at hsst5 [4]. The molecule further had a logP in data set [3] of -3.69.
As for `C[C@@H](O)[C@H](NC(=O)[C@@H]1CSSC[C@H](NC(=O)[C@@H](Cc2ccccc2)NC(=O)CN2CCN(CC(=O)O)CCN(CC(=O)O)CCN(CC(=O)O)CC2)C(=O)N[C@@H](Cc2ccc(O)c(I)c2)C(=O)N[C@H](Cc2c[nH]c3ccccc23)C(=O)N[C@@H](CCCCN)C(=O)N[C@@H]([C@@H](C)O)C(=O)N1)C(=O)O` [[^68Ga]HA-DOTATATE] [[^68Ga]DOTA-3-iodo-Tyr^3-octreotate, metal not drawn], in data set [5], the “Uptake in sst-expressing tissues (stomach, adrenals, pancreas, AR42J tumor), factor of increase compared to [^68Ga]DOTATATE” value was in the range of 1.4 to 2.

Values taken from article PMC4402678, “Twins in spirit - episode I: comparative preclinical evaluation of [^68Ga]DOTATATE and [^68Ga]HA-DOTATATE” (EJNMMI Research, 2015).
